Measurements from patent US20200061062A1, “INHIBITORS OF HUMAN PHOSPHATIDYLINOSITOL 3-KINASE DELTA” (ICOS Corporation, priority 2000, published 2020).
Like-named read-outs stand apart in the source and are kept apart here.

What was measured:
T cells = assay: T cell proliferation in response to costimulation of CD3+CD28; assay type: cell-based; conditions: Homo sapiens, highest tested concentration 10 μM, read-out: Half-maximal inhibition of thymidine incorporation (anti-CD3- and anti-CD28-induced T cell proliferation)
Method: T cell proliferation in response to costimulation of CD3+CD28 was measured. T cells were purified from healthy human blood by negative selection using antibody coated magnetic beads according to the manufacturer's protocol (Dynal) and resuspended in RPMI. The cells were treated with either DMSO or a serial dilution of D-000 in DMSO and plated at 1×10^5 cells/well on a 96-well plate precoated with goat antimouse IgG. Mouse monoclonal anti-CD3 and anti-CD28 antibodies were then added to each well at 0.2 ng/mL and 0.2 μg/mL, respectively. The plate was incubated at 37° C. for 24 hr and [^3H]-thymidine (1 μCi/well) was added. After another 18 hr incubation the cells were harvested with an automatic cell harvester, washed and the incorporated radioactivity was quantified.

[1] = system: Murine splenocytes (Balb/c); assay: B cell proliferation in response to cell surface IgM stimulation; assay type: cell-based; conditions: Mus musculus, Splenocyte; for EC50: stimulated B cell proliferation, read-out: Mouse BCR Stim (EC50)
How it was run: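 Balb/c splenocytes (2×10^5/well, 10% FBS/RPMI) preincubated 30-60 min with inhibitor, then stimulated with goat F(ab′)2 anti-mouse IgM μ-chain at 25 μg/mL final. Cultured 3 days at 37° C., [^3H]-thymidine pulsed for final 4 h; incorporation counted as CPM. Values are EC50 (μM).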

RWLeu4 = assay: Cancer cell proliferation, [3H]-thymidine incorporation, RWLeu4; assay type: cell-based; conditions: Homo sapiens, 120 h; RWLeu4 line; five days; read-out: EC50, inhibition of cell growth
Method: (§1) The effect of compounds of the invention on cancer cell proliferation was evaluated by testing one of the compounds against a panel of Chronic Myeloid Leukemia (CML) cell lines, including KU812, RWLeu4, K562, and MEG-01.
(§2) The inhibitory activity of the compound (D-000, dissolved in DMSO) was determined as follows. The tested compound was added in a series of concentrations (0.001 μM to 20 μM) to 96-well microtiter plates with cells (1000 to 5000 cells/well). Plates were incubated for five days at 37° C. during which the control cultures without test compound were able to undergo at least two cell-division cycles. Cell growth was measured by incorporation of [^3H]-thymidine for eighteen hours added at days three, four, and five. Cells were transferred to a filter, washed and the radioactivity counted using a Matrix 96 beta counter (Packard). The percentage of cell growth was measured as follows: […]

MEG-01 = assay: Cancer cell proliferation, [3H]-thymidine incorporation, MEG-01; assay type: cell-based; conditions: MEG-01 line; 0.001 μM to 20 μM
Method: as §1, §2

human neutrophils = assay: fMLP-induced human neutrophil migration; assay type: cell-based
Method: Neutrophils have the intrinsic capacity to migrate through tissues, and are one of the first cell types to arrive at the sites of inflammation or tissue injury. The effect of D-000 on neutrophil migration towards a concentration gradient of fMLP was measured. The day before the migration assays were performed, 6-well plates were coated with recombinant ICAM-1/Fc fusion protein (Van der Vieren et al., Immunity, 3:683-690 (1995)) (25 μg/mL in bicarbonate buffer, pH 9.3) and left overnight at 4° C. After washing, 1% agarose solution, in RPMI-1640 with 0.5% bovine serum albumin (BSA), was added to wells with or without an inhibitor, and plates were placed into a refrigerator before punching holes in the gelled agarose to create plaques (1 central hole surrounded by 6 peripheral ones per well).
Human neutrophils were obtained as described above, and resuspended in RPMI medium supplemented with 0.5% BSA at 5×10^6 cells/mL. After combining equal volumes of neutrophil suspension and medium (either with DMSO or a serial dilution of the test compound in DMSO), neutrophils were aliquoted into the peripheral holes, while the central hole received fMLP (5 μM). Plates were incubated at 37° C. in the presence of 5% CO2 for 4 hr, followed by termination of migration by the addition of 1% glutaraldehyde solution in D-PBS. After removing the agarose layer, wells were washed with distilled water and dried.
Analysis of neutrophil migration was conducted on a Nikon DIAPHOT® inverted microscope (1× objective) video workstation using the NIH 1.61 program. Using Microsoft Excel and Table Curve 4 (SSPS Inc., Chicago Ill.) programs, a migration index was obtained for each of the studied conditions. Migration index was defined as the area under a curve representing number of migrated neutrophils versus the net distance of migration per cell.
Using the methods described in Examples 3-5, above, compounds of the invention were tested for inhibitory activity and potency in assays of stimulated B and T cell proliferation, neutrophil (PMN) migration, and neutrophil (PMN) elastase release. In Table 4, the values shown are effective concentrations of the compound (EC50; μM). Where no value is given, no assay was performed.

K562 = assay: Cancer cell proliferation, [3H]-thymidine incorporation, K562; assay type: cell-based; conditions: K562 line; 0.001 μM to 20 μM
Method: as §1, §2

PI3Kα = biological target: T1, PI3Kα (Homo sapiens, UniProt P42336); assay: Biochemical assay of PI3K potency and selectivity using 20 μM ATP, Alpha; conditions: for Alpha/Delta Ratio: ratio of IC50 values, > = hypothetical ratio with 100 μM substituted for the missing IC50; for remaining activity at 100 µM: read-out: percent activity remaining at 100 μM, 20 μM ATP, 100 μM compound did not inhibit by at least 50%
T1 construct: His tag (pFastbac HTb vector) (N); FLAG; made in house; host or cells: Sf21 insect cells (baculovirus)
T1 sequence (P42336 whole entry): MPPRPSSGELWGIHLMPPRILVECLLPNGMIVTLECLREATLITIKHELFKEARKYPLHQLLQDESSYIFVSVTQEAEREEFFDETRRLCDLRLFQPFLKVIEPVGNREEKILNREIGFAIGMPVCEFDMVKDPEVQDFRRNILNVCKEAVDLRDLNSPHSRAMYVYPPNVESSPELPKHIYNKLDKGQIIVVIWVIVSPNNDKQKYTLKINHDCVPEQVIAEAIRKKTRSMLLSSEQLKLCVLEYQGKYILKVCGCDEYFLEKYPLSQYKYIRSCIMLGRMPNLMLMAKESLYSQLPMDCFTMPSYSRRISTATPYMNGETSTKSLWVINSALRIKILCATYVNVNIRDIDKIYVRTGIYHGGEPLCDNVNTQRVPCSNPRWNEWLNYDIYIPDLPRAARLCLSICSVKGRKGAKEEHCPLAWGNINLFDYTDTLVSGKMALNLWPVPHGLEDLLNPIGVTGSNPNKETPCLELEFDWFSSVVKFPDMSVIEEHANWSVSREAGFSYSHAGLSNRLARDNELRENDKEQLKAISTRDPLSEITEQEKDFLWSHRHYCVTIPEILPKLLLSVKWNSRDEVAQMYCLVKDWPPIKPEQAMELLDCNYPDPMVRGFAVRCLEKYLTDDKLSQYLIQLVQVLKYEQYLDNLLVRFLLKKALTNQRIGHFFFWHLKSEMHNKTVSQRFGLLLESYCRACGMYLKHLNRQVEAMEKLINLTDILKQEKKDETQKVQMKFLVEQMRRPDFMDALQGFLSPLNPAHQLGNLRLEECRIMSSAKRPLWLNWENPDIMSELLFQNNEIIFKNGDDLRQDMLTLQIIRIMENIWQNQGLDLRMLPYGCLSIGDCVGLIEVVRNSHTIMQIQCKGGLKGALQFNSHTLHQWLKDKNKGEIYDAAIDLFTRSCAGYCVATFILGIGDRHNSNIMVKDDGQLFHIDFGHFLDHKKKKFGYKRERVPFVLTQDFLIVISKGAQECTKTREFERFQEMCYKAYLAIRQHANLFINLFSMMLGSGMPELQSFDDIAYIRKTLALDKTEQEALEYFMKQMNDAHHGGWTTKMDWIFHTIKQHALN
T1 sequence (P27986 whole entry partner): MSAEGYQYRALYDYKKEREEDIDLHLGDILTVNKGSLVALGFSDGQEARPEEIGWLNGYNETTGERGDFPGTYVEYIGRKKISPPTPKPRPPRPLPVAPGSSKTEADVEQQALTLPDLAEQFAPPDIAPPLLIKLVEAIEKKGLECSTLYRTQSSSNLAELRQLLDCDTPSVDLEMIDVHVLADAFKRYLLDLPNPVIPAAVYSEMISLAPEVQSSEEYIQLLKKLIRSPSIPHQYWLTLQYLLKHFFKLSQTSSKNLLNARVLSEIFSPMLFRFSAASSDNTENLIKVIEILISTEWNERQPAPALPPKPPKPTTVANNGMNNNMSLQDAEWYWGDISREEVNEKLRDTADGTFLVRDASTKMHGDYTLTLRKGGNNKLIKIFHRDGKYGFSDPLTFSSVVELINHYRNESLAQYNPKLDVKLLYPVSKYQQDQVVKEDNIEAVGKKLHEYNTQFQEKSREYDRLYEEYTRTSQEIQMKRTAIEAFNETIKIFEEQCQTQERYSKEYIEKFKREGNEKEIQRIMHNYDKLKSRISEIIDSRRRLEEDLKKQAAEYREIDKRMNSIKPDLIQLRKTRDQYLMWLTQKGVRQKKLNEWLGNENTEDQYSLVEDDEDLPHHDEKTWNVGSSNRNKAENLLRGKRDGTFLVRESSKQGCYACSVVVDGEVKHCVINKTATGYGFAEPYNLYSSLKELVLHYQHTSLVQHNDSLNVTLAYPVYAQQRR
How it was run: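 Radioactive phosphate transfer from γ-[32P]ATP onto PIP2/PS liposomes was measured in 20 mM HEPES, pH 7.4, at 20 μM ATP. The 3× substrate stock contained […] and 6 μM PIP2/PS.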

[2] = neutrophil (PMN) migration, read-out: Human PMN Migration (EC50)

| SMILES | IC50 (T cells) | IC50 ([1]; anti-IgM 25 μg/mL, 3 days, [3H]-thymidine, FIG. 8, read-out: Concentration reducing anti-IgM-stimulated B cell proliferation to its half-maximal value) | EC50 [1] | EC50 (RWLeu4) | Effect on cell growth (MEG-01) | EC50 (human neutrophils; Neutrophil, fMLP (5 μM) gradient, 4 hr, FIG. 5, read-out: EC50 for inhibition of neutrophil migration) | EC50 (human neutrophils; [2]) | Effect on cell growth (K562) | Alpha/Delta Ratio (PI3Kα; 20 μM ATP) | IC50 (PI3Kα; Example 2 assay conditions, limit of 100 μM compound, read-out: IC50, α isoform of PI3K (FIG. 1)) | remaining activity at 100 µM (PI3Kα) | melting point | IC50 (PI3Kα; 20 μM ATP, read-out: Alpha IC50) |
| --- | --- | --- | --- | --- | --- | --- | --- | --- | --- | --- | --- | --- | --- |
| O=c1c2ccccc2nc(CSc2ncnc3[nH]cnc23)n1-c1ccccc1Cl [Compound D-000, 3-(2-chlorophenyl)-2-(9H-purin-6-ylsulfanylmethyl)-3H-quinazolin-4-one] | > 10000 nM | ~1000 nM | 900 ± 400 nM | ~2000 nM | not found to exhibit an effect | ~1000 nM | 1000 to 5000 nM | not found to exhibit an effect | >302 | > 100000 nM | 86% |  |  |
| O=c1c2c(F)cccc2nc(CSc2ncnc3[nH]cnc23)n1-c1ccccc1Cl [Compound D-015, 3-(2-Chlorophenyl)-5-fluoro-2-(9H-purin-6-ylsulfanylmethyl)-3H-quinazolin-4-one] |  |  | 1200 ± 200 nM |  |  |  | 2000 nM |  | >480 |  | 65% | 222.7 to 223.8 °C |  |
| O=c1c2c(Cl)cccc2nc(CSc2ncnc3[nH]cnc23)n1-c1ccccc1Cl [Compound D-025, 5-Chloro-3-(2-chlorophenyl)-2-(9H-purin-6-ylsulfanylmethyl)-3H-quinazolin-4-one] |  |  | 300 ± 100 nM |  |  |  | 300 ± 300 nM |  | >909 |  | 73% | 233.7 to 234.4 °C (dec.) |  |
| O=c1c2ccccc2nc(CSc2ncnc3[nH]ncc23)n1-c1ccccc1Cl [Compound D-999, 3-(2-Chlorophenyl)-2-(1H-pyrazolo[3,4-d]pyrimidin-4-ylsulfanylmethyl)-3H-quinazolin-4-one, reference compound] |  |  | 3100 ± 700 nM |  |  |  | 1000 nM |  | 2.2 |  |  |  | 105000 nM |
